Where “and” joins values, the source holds several entries; their conditions need not be identical. Equal values may be shown once.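 Protocol summary: plate cells (96-well), add compound at 5 concentrations, incubate 48 h, interpolate endpoints linearly. The concentration for 50% growth inhibition is given as GI50. TGI is the concentration that stops growth completely.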

One assay relates to MOLT-4 leukemia. Kind of assay: NCI tumour cell line growth inhibition, 48 h.
Take `COc1ccc(-c2nn(-c3cccc(Cl)c3)cc2C2CC(c3ccccc3)=NN2C(C)=O)cc1` (stereo unspecified): the GI50 is above 100 µM and the TGI is above 100 µM.

As for `CCn1c(-c2nonc2N)nc2c(C#CCN)ncc(OCCCN)c21`, the GI50 was above 25 µM and the TGI was above 25 µM.

For `CN1CCN(Cc2ccc(C(=O)Nc3cncc(C#Cc4cnc(N)c5ccccc45)c3)cc2C(F)(F)F)CC1`, the GI50 was 2.17 µM and the TGI amounted to 5.31 µM.

Regarding `N#CC(=C1SCS1)[N+](=O)[O-]`, the GI50 is 0.639 µM and the TGI came to 6.5 µM.

With `CC(C)(C)OC(=O)n1cc(CNC(=S)Nc2ccccc2)c2ccccc21`, the GI50 is 3.88 µM and the TGI is above 100 µM.

On to `O=C(NNc1nc2c(F)cccc2n2cccc12)c1cnccn1`, for which the GI50 is 0.302 µM and the TGI was above 100 µM.

As for `CN=C(N)N/N=C(\c1ccccc1)c1ccc(Br)cc1`, the GI50 is 0.362 µM and the TGI was 7.3 µM.

With `O=C(c1ccc2ccccc2c1)c1c(C(F)(F)F)n([O-])c2cc(Cl)c(Cl)cc2[n+]1=O`, the GI50 was 1.14 µM and the TGI is 2.84 µM.

Take `O=C1/C(=C/c2ccc(F)cc2)CCOc2ccc([N+](=O)[O-])cc21`: the GI50 was 2.49 µM and the TGI was found to be 6.02 µM.

As for `O=C(CCN1CCN(c2cnc3ccccc3n2)CC1)c1csc2ccccc12`, the GI50 is 35.7 µM and the TGI was above 100 µM.

Consider `CCc1c2c(nc3cc4c(cc13)OCO4)-c1cc3c(c(=O)n1C2)COC(=O)[C@]3(O)CC`, for which the GI50 was below 0.001 µM; the TGI was 0.0106 µM and 0.0339 µM.

`COc1ccc(-c2cc(-c3cc(Cl)ccc3Cl)nc3[nH]c(-c4cc(F)c(Cl)cc4Cl)cc(=O)c23)cc1`: the GI50 is 24.2 µM and the TGI came to 68.6 µM.

`COC(=O)C1OC(O[C@H]2CCC3(C)C(CCC4(C)C3CC=C3C5CC(C)(C)CCC5(C(=O)O)CC[C@]34C)C2(C)C)C(O)C(OC2OC(CO)C(O)C(O)C2O)C1O` (stereo partly specified): the GI50 is 2.17 µM and the TGI is 13.4 µM.

In the case of `COc1cccc(/C=C/C(=O)c2cc3c(N)c(C(=O)Nc4ccccc4C)sc3nc2C)c1`, the GI50 is 1.49 µM and the TGI was 27.8 µM.

The subject of another assay is BT-549 breast. Kind of assay: NCI tumour cell line growth inhibition, 48 h.
Consider `COc1ccc(-c2nn(-c3cccc(Cl)c3)cc2C2CC(c3ccccc3)=NN2C(C)=O)cc1` (stereo unspecified), for which the GI50 is 3.23 µM and the TGI is 19.7 µM.

For the molecule `CCn1c(-c2nonc2N)nc2c(C#CCN)ncc(OCCCN)c21`, the GI50 is above 25 µM and the TGI was above 25 µM.

As for `CN1CCN(Cc2ccc(C(=O)Nc3cncc(C#Cc4cnc(N)c5ccccc45)c3)cc2C(F)(F)F)CC1`, the GI50 is 12.7 µM and the TGI is 25.4 µM.

As to `N#CC(=C1SCS1)[N+](=O)[O-]`, the GI50 was 9.3 µM and the TGI came out at 23 µM.

As for `CC(C)(C)OC(=O)n1cc(CNC(=S)Nc2ccccc2)c2ccccc21`, the GI50 was 14.5 µM and the TGI was found to be 32.7 µM.

With `O=C(NNc1nc2c(F)cccc2n2cccc12)c1cnccn1`, the GI50 was 0.671 µM and the TGI was 50.8 µM.

Take `CN=C(N)N/N=C(\c1ccccc1)c1ccc(Br)cc1`: the GI50 is 1.5 µM and the TGI was 12.7 µM.

Consider `O=C(c1ccc2ccccc2c1)c1c(C(F)(F)F)n([O-])c2cc(Cl)c(Cl)cc2[n+]1=O`, for which the GI50 was 1.48 µM and the TGI stood at 2.8 µM.

For the molecule `O=C1/C(=C/c2ccc(F)cc2)CCOc2ccc([N+](=O)[O-])cc21`, the GI50 was 3 µM and the TGI is 7.82 µM.

`O=C(CCN1CCN(c2cnc3ccccc3n2)CC1)c1csc2ccccc12`: the GI50 is 14.9 µM and the TGI worked out at 30 µM.

Regarding `CCc1c2c(nc3cc4c(cc13)OCO4)-c1cc3c(c(=O)n1C2)COC(=O)[C@]3(O)CC`, the GI50 is 0.0654 µM and 0.0367 µM; the TGI is 5.29 µM and 0.782 µM.

In the case of `COc1ccc(/C=C/C=C(/C#N)C(N)=S)cc1`, the GI50 is 30.1 µM and the TGI was above 100 µM.

With `COc1ccc(-c2cc(-c3cc(Cl)ccc3Cl)nc3[nH]c(-c4cc(F)c(Cl)cc4Cl)cc(=O)c23)cc1`, the GI50 is 29.6 µM and the TGI is above 100 µM.

With `COC(=O)C1OC(O[C@H]2CCC3(C)C(CCC4(C)C3CC=C3C5CC(C)(C)CCC5(C(=O)O)CC[C@]34C)C2(C)C)C(O)C(OC2OC(CO)C(O)C(O)C2O)C1O` (stereo partly specified), the GI50 was 6.93 µM and the TGI was 15 µM.

On to `COc1cccc(/C=C/C(=O)c2cc3c(N)c(C(=O)Nc4ccccc4C)sc3nc2C)c1`, for which the GI50 is 1.5 µM and the TGI worked out at 5.83 µM.

For a further assay, the system named is KM12 colon. The assay is described as follows: NCI tumour cell line growth inhibition, 48 h.
With `COc1ccc(-c2nn(-c3cccc(Cl)c3)cc2C2CC(c3ccccc3)=NN2C(C)=O)cc1` (stereo unspecified), the GI50 was above 100 µM and the TGI was above 100 µM.

Turning to `CCn1c(-c2nonc2N)nc2c(C#CCN)ncc(OCCCN)c21`, the GI50 is above 25 µM and the TGI was above 25 µM.

With `CN1CCN(Cc2ccc(C(=O)Nc3cncc(C#Cc4cnc(N)c5ccccc45)c3)cc2C(F)(F)F)CC1`, the GI50 was 0.788 µM and the TGI was found to be 2.48 µM.

Take `N#CC(=C1SCS1)[N+](=O)[O-]`: the GI50 is 3.29 µM and the TGI was 14.2 µM.

For the molecule `CC(C)(C)OC(=O)n1cc(CNC(=S)Nc2ccccc2)c2ccccc21`, the GI50 was 5.34 µM and the TGI is 18.4 µM.

For `O=C(NNc1nc2c(F)cccc2n2cccc12)c1cnccn1`, the GI50 was 0.458 µM and the TGI came out at 27.1 µM.

On to `CN=C(N)N/N=C(\c1ccccc1)c1ccc(Br)cc1`, for which the GI50 is 0.334 µM and the TGI stood at 4.4 µM.

For `O=C(c1ccc2ccccc2c1)c1c(C(F)(F)F)n([O-])c2cc(Cl)c(Cl)cc2[n+]1=O`, the GI50 was 1.53 µM and the TGI was 2.86 µM.

On to `O=C1/C(=C/c2ccc(F)cc2)CCOc2ccc([N+](=O)[O-])cc21`, for which the GI50 was 1.83 µM and the TGI amounted to 4.4 µM.

On to `O=C(CCN1CCN(c2cnc3ccccc3n2)CC1)c1csc2ccccc12`, for which the GI50 was 33.5 µM and the TGI was above 100 µM.

Turning to `CCc1c2c(nc3cc4c(cc13)OCO4)-c1cc3c(c(=O)n1C2)COC(=O)[C@]3(O)CC`, the GI50 is 0.184 µM and 0.191 µM; the TGI was above 100 µM.

With `COc1ccc(/C=C/C=C(/C#N)C(N)=S)cc1`, the GI50 is 21.3 µM and the TGI was determined as 89.4 µM.

In the case of `COc1ccc(-c2cc(-c3cc(Cl)ccc3Cl)nc3[nH]c(-c4cc(F)c(Cl)cc4Cl)cc(=O)c23)cc1`, the GI50 was 21.7 µM and the TGI stood at 67.1 µM.

With `COC(=O)C1OC(O[C@H]2CCC3(C)C(CCC4(C)C3CC=C3C5CC(C)(C)CCC5(C(=O)O)CC[C@]34C)C2(C)C)C(O)C(OC2OC(CO)C(O)C(O)C2O)C1O` (stereo partly specified), the GI50 is 8.83 µM and the TGI is 28.9 µM.

For the molecule `COc1cccc(/C=C/C(=O)c2cc3c(N)c(C(=O)Nc4ccccc4C)sc3nc2C)c1`, the GI50 was 1.27 µM and the TGI was found to be 3.62 µM.

Another assay has as its system SNB-19 CNS. The assay is described as follows: NCI tumour cell line growth inhibition, 48 h.
Turning to `COc1ccc(-c2nn(-c3cccc(Cl)c3)cc2C2CC(c3ccccc3)=NN2C(C)=O)cc1` (stereo unspecified), the GI50 was 17 µM and the TGI was above 100 µM.

`CCn1c(-c2nonc2N)nc2c(C#CCN)ncc(OCCCN)c21`: the GI50 is above 25 µM and the TGI was above 25 µM.

Turning to `CN1CCN(Cc2ccc(C(=O)Nc3cncc(C#Cc4cnc(N)c5ccccc45)c3)cc2C(F)(F)F)CC1`, the GI50 is 2.49 µM and the TGI was 5.69 µM.

Turning to `N#CC(=C1SCS1)[N+](=O)[O-]`, the GI50 is 9.36 µM and the TGI amounted to 83.5 µM.

On to `CC(C)(C)OC(=O)n1cc(CNC(=S)Nc2ccccc2)c2ccccc21`, for which the GI50 is 15.3 µM and the TGI was found to be 61.7 µM.

With `O=C(NNc1nc2c(F)cccc2n2cccc12)c1cnccn1`, the GI50 is 0.545 µM and the TGI was above 100 µM.

Regarding `CN=C(N)N/N=C(\c1ccccc1)c1ccc(Br)cc1`, the GI50 is 0.6 µM and the TGI was determined as 13.9 µM.

`O=C1/C(=C/c2ccc(F)cc2)CCOc2ccc([N+](=O)[O-])cc21`: the GI50 was 4.26 µM and the TGI was determined as 16.2 µM.

Regarding `O=C(CCN1CCN(c2cnc3ccccc3n2)CC1)c1csc2ccccc12`, the GI50 is above 100 µM and the TGI was above 100 µM.

For `CCc1c2c(nc3cc4c(cc13)OCO4)-c1cc3c(c(=O)n1C2)COC(=O)[C@]3(O)CC`, the GI50 is 0.0164 µM and the TGI stood at 0.455 µM.

As for `COc1ccc(/C=C/C=C(/C#N)C(N)=S)cc1`, the GI50 was 26.2 µM and the TGI is above 100 µM.

For `COc1ccc(-c2cc(-c3cc(Cl)ccc3Cl)nc3[nH]c(-c4cc(F)c(Cl)cc4Cl)cc(=O)c23)cc1`, the GI50 is 64.1 µM and the TGI is above 100 µM.

`COC(=O)C1OC(O[C@H]2CCC3(C)C(CCC4(C)C3CC=C3C5CC(C)(C)CCC5(C(=O)O)CC[C@]34C)C2(C)C)C(O)C(OC2OC(CO)C(O)C(O)C2O)C1O` (stereo partly specified): the GI50 is 6.82 µM and the TGI stood at 15.5 µM.

For the molecule `COc1cccc(/C=C/C(=O)c2cc3c(N)c(C(=O)Nc4ccccc4C)sc3nc2C)c1`, the GI50 was 1.07 µM and the TGI was 2.68 µM.

Another assay deals with A549 NSCLC. The assay is described as follows: NCI tumour cell line growth inhibition, 48 h.
Take `COc1ccc(-c2nn(-c3cccc(Cl)c3)cc2C2CC(c3ccccc3)=NN2C(C)=O)cc1` (stereo unspecified): the GI50 is 7.58 µM and the TGI is above 100 µM.

`CCn1c(-c2nonc2N)nc2c(C#CCN)ncc(OCCCN)c21`: the GI50 was above 25 µM and the TGI was above 25 µM.

With `CN1CCN(Cc2ccc(C(=O)Nc3cncc(C#Cc4cnc(N)c5ccccc45)c3)cc2C(F)(F)F)CC1`, the GI50 was 1.94 µM and the TGI was 3.85 µM.

For the molecule `N#CC(=C1SCS1)[N+](=O)[O-]`, the GI50 is 4 µM and the TGI was 40.6 µM.

`CC(C)(C)OC(=O)n1cc(CNC(=S)Nc2ccccc2)c2ccccc21`: the GI50 is 10.6 µM and the TGI was found to be 33.1 µM.

Take `O=C(NNc1nc2c(F)cccc2n2cccc12)c1cnccn1`: the GI50 is 0.466 µM and the TGI was 36 µM.

On to `CN=C(N)N/N=C(\c1ccccc1)c1ccc(Br)cc1`, for which the GI50 was 0.394 µM and the TGI amounted to 10.1 µM.

`O=C(c1ccc2ccccc2c1)c1c(C(F)(F)F)n([O-])c2cc(Cl)c(Cl)cc2[n+]1=O`: the GI50 was 1.63 µM and the TGI was found to be 2.98 µM.

`O=C1/C(=C/c2ccc(F)cc2)CCOc2ccc([N+](=O)[O-])cc21`: the GI50 is 8.47 µM and the TGI is 23.7 µM.

Molecule `CCc1c2c(nc3cc4c(cc13)OCO4)-c1cc3c(c(=O)n1C2)COC(=O)[C@]3(O)CC` gave a TGI of 2.08 µM.

On to `COc1ccc(/C=C/C=C(/C#N)C(N)=S)cc1`, for which the GI50 was 33.1 µM and the TGI is above 100 µM.

`COc1ccc(-c2cc(-c3cc(Cl)ccc3Cl)nc3[nH]c(-c4cc(F)c(Cl)cc4Cl)cc(=O)c23)cc1`: the GI50 is 14.2 µM and the TGI came to 74.7 µM.

For `COC(=O)C1OC(O[C@H]2CCC3(C)C(CCC4(C)C3CC=C3C5CC(C)(C)CCC5(C(=O)O)CC[C@]34C)C2(C)C)C(O)C(OC2OC(CO)C(O)C(O)C2O)C1O` (stereo partly specified), the GI50 was 7.22 µM and the TGI is 19.2 µM.

For the origin of these results see PubChem BioAssay (NCI).
